Laboratory results reported in US10662203B2, “Pyrido[2,3-b]indole compounds for the treatment and prophylaxis of bacterial infection” (Hoffmann-La Roche Inc., priority 2017, dated 2020).
Converted amounts (≈) assume the structure as drawn.

Tests used:
[1] = Lyophilisation solubility assay (LYSA); type: physicochemical; conditions: phosphate buffer, pH 6.5, aqueous buffer, thermodynamic from solid, 0.05 M phosphate buffer, HPLC-UV
Protocol: Lyophilisation Solubility Assay (LYSA):
The solubility of compounds of present invention was assessed by LYSA assay. Samples were prepared in duplicate from 10 mM DMSO stock solutions (20 μL) diluted in 30 μL pure DMSO. After evaporation of DMSO with a centrifugal vacuum evaporator, the residue was dissolved in 0.05 M phosphate buffer (150 μL, pH 6.5), which was stirred for one hour and shook for two hours. After one night, the solution was filtered using a microtiter filter plate. Then the filtrate and its 1/10 dilution were analyzed by HPLC-UV.

[2] = system: A. baumannii (ATCC17978); experiment: 50% growth inhibitory concentration (IC50) determination assay; type: cell-based; conditions: Acinetobacter baumannii, ATCC17978, A. baumannii ATCC17978; Iso-Sensitest broth; 0.098 = detection limit
Protocol: (§1) Stock compounds in DMSO were serially two-fold diluted (range from 50 to 0.097 μM final concentration) in 384 wells microtiter plates and inoculated with 49 μL the bacterial suspension in Iso-Sensitest broth medium to have a final cell concentration of ˜5×10^5 CFU/mL in a final volume/well of 50 μL/well. Microtiter plates were incubated at 35±2° C. Bacterial cell growth was determined with the measurement of optical density at λ=600 nm each 20 minutes over a time course of 16 h. […] GP-6 (Example 4.131 disclosed in WO 2012/125746 A1) was used as the reference compound in Table 6-8. […] The data of IC50 over S. aureus (ATCC29213), K. pneumoniae (ATCC10031), and A. baumannii (ATCC17978) are illustrated in Table 6.

[3] = system: K. pneumoniae (ATCC10031); experiment: as above; type: cell-based; conditions: Klebsiella pneumoniae, Iso-Sensitest broth, 0.098 = detection limit
Protocol: as §1

[4] = system: S. aureus (ATCC29213); experiment: as above; type: cell-based; conditions: Staphylococcus aureus, Iso-Sensitest broth, 0.098 = detection limit
Protocol: as §1

Structure (SMILES)	solubility thermodynamic [1] [µg/mL]	IC50 [2] [µM]	IC50 [3] [µM]	IC50 [4] [µM]
CNc1cc(F)c(F)c2c1[nH]c1ncc(-c3cnc4c(c3)c(=O)c(C(=O)O)cn4C)c(N3CCC[C@@H]3CN(C)C)c12 [Example 1.13]	389 (≈ 693 µM)	–	–	–
CNc1cc(F)c(F)c2c1[nH]c1ncc(-c3cnc4c(c3)c(=O)c(C(=O)O)cn4NC)c(N3CC4OCCN(C)C4C3)c12 (centres unmarked) [Example 1.236]	55 (≈ 93.1 µM)	–	–	–
CNc1cc(F)c(F)c2c1[nH]c1ncc(-c3cnc4c(c3)c(=O)c(C(=O)O)cn4C)c(N3CC[C@@H]4CN(C)C[C@@H]43)c12 [Example 3.03B]	180 (≈ 322 µM)	–	–	–
CNc1cc(F)c(F)c2c1[nH]c1ncc(-c3cnc4c(c3)c(=O)c(C(=O)O)cn4C)c(N3CCN4CCC[C@H]4C3)c12 [Example 1.219]	73 (≈ 130 µM)	0.267	–	–
CNc1cc(F)c(F)c2c1[nH]c1ncc(-c3cnc4c(c3)c(=O)c(C(=O)O)cn4C3CC3)c(N(C)C)c12 [Example 1.95]	–	0.276	0.282	< 0.098
CNc1cc(F)cc2c1[nH]c1ncc(-c3cnc4c(c3)c(=O)c(C(=O)O)cn4C)c(N3CCCOCC3)c12 [Example 1.60]	–	0.248	< 0.098	< 0.098
CNc1cc(F)c(Cl)c2c1[nH]c1ncc(-c3cnc4c(c3)c(=O)c(C(=O)O)cn4C)c(N3CC[C@H]4CN(C)CC43)c12 (some centres unmarked) [Example 1.270]	–	0.048	< 0.098	< 0.098
CNc1cc(F)c(F)c2c1[nH]c1ncc(-c3cnc4c(c3)c(=O)c(C(=O)O)cn4N(C)C)c(N3CCOCC3)c12 [Example 1.180]	–	0.353	0.112	< 0.098
CNc1cc(F)c(F)c2c1[nH]c1ncc(-c3cnc4c(c3)c(=O)c(C(=O)O)cn4C)c(N3C[C@@H]4OCCN(C)[C@@H]4C3)c12 [Example 3.14B]	–	0.103	< 0.098	< 0.098
CCn1cc(C(=O)O)c(=O)c2cc(-c3cnc4[nH]c5c(NC)cc(F)cc5c4c3N(C)C)cnc21 [Example 1.19]	–	0.283	0.145	< 0.098
CNc1cc(Cl)cc2c1[nH]c1ncc(-c3cnc4c(c3)c(=O)c(C(=O)O)cn4C)c(N3C[C@@H]4CCN(C)[C@@H]4C3)c12 [Example 3.15B]	–	0.094	< 0.098	< 0.098
CNc1cc(F)cc2c1[nH]c1ncc(-c3cnc4c(c3)c(=O)c(C(=O)O)cn4C(C)(C)CN3CCCC3)c(N(C)C)c12 [Example 1.17]	–	0.515	0.101	< 0.098
CNc1c(F)cc(F)c2c1[nH]c1ncc(-c3cnc4c(c3)c(=O)c(C(=O)O)cn4C3CCNC3)c(N(C)C)c12 (centres unmarked) [Example 1.107]	–	0.699	< 0.098	0.189
CNc1cc(F)c(F)c2c1[nH]c1ncc(-c3cnc4c(c3)c(=O)c(C(=O)O)cn4NC)c(N3CC[C@H]4CCN(C)C4C3)c12 (some centres unmarked) [Example 1.199]	–	0.151	< 0.098	< 0.098
CNc1cc(F)cc2c1[nH]c1ncc(-c3cnc4c(c3)c(=O)c(C(=O)O)cn4C)c(N3CCO[C@@H](C)C3)c12 [Example 1.50]	–	0.112	< 0.098	< 0.098
CNc1cc(F)cc2c1[nH]c1ncc(-c3cnc4c(c3)c(=O)c(C(=O)O)cn4C3CCN(C)C3)c(N3CCOCC3)c12 (centres unmarked) [Example 1.81]	–	0.164	< 0.098	< 0.098
CNc1c(F)cc(F)c2c1[nH]c1ncc(-c3cnc4c(c3)c(=O)c(C(=O)O)cn4C)c(N3CCOCC3)c12 [Example 1.105]	–	0.216	< 0.098	5.22
CNc1cc(F)c(F)c2c1[nH]c1ncc(-c3cnc4c(c3)c(=O)c(C(=O)O)cn4C)c(N3CCC(CN(C)CCOC)C3)c12 (centres unmarked) [Example 1.142]	–	0.195	< 0.098	< 0.098
CNc1cc(F)c(F)c2c1[nH]c1ncc(-c3cnc4c(c3)c(=O)c(C(=O)O)cn4C)c(N3CCN(C4CC4)CC3)c12 [Example 1.204]	–	0.201	< 0.098	< 0.098
CNc1cc(F)c(F)c2c1[nH]c1ncc(-c3cnc4c(c3)c(=O)c(C(=O)O)cn4C)c(N3CCC4(C[C@H]4N(C)C)C3)c12 (stereo partly drawn) [Example 6.02, 6-(4-cis-(2-(dimethylamino)-5-azaspiro[2.4]heptan-5-yl)-5,6-difluoro-8-(methylamino)-9H-pyrido[2,3-b]indol-3-yl)-1-methyl-4-oxo-1,4-dihydro-1,8-naphthyridine-3-carboxylic acid]	–	0.389	0.166	< 0.098

Structure (SMILES)	solubility thermodynamic [1] [µg/mL]	IC50 [2] [µM]	IC50 [3] [µM]	IC50 [4] [µM]
CNc1cc(F)c(F)c2c1[nH]c1ncc(-c3cnc4c(c3)c(=O)c(C(=O)O)cn4CCN(C)C)c(N3CCC(F)(F)C3)c12 [Example 2.02]	–	0.992	0.167	< 0.098
CNc1cc(F)cc2c1[nH]c1ncc(-c3cnc4c(c3)c(=O)c(C(=O)O)cn4C)c(N3CCCC3)c12 [Example 1.46]	–	0.277	< 0.098	< 0.098
CNc1cc(F)c(F)c2c1[nH]c1ncc(-c3cnc4c(c3)c(=O)c(C(=O)O)cn4CC3CCCO3)c(N3CCOCC3)c12 (centres unmarked) [Example 1.39]	–	0.363	0.19	< 0.098
CNc1cc(F)c(F)c2c1[nH]c1ncc(-c3cnc4c(c3)c(=O)c(C(=O)O)cn4NC)c(N3CC4[C@H](CC[C@H]4N(C)C)C3)c12 (some centres unmarked) [Example 1.284]	–	0.111	< 0.098	< 0.098
CNc1cc(F)c(F)c2c1[nH]c1ncc(-c3cnc4c(c3)c(=O)c(C(=O)O)cn4N)c(N3CC[C@H]4CN(C)CC43)c12 (some centres unmarked) [Example 5.02]	174 (≈ 310 µM)	–	–	–
CNc1cc(F)c(F)c2c1[nH]c1ncc(-c3cnc4c(c3)c(=O)c(C(=O)O)cn4C)c(N3CCC[C@H]3CO)c12 [Example 1.77]	–	0.291	0.111	< 0.098
CNc1cc(F)c(F)c2c1[nH]c1ncc(-c3cnc4c(c3)c(=O)c(C(=O)O)cn4C)c(N3C[C@@H]4OCCN(C)[C@H]4C3)c12 [Example 3.24A]	–	0.315	< 0.098	< 0.098
CNc1cc(F)cc2c1[nH]c1ncc(-c3cnc4c(c3)c(=O)c(C(=O)O)cn4N)c(N3CC[C@H]4CN(C)CC43)c12 (some centres unmarked) [Example 5.05]	250 (≈ 461 µM)	–	–	–
CNc1cc(F)cc2c1[nH]c1ncc(-c3cnc4c(c3)c(=O)c(C(=O)O)cn4C)c(N3CCO[C@H](C)C3)c12 [Example 1.49]	–	0.112	< 0.098	< 0.098
CNc1cc(F)c(F)c2c1[nH]c1ncc(-c3cnc4c(c3)c(=O)c(C(=O)O)cn4C)c(N3CC[C@@H](CN4CCOCC4)C3)c12 [Example 1.174]	–	0.784	0.224	< 0.098
CNc1cc(F)c(F)c2c1[nH]c1ncc(-c3cnc4c(c3)c(=O)c(C(=O)O)cn4Cc3cnco3)c(N(C)C)c12 [Example 1.87]	–	0.49	0.122	< 0.098
CNc1cc(F)c(F)c2c1[nH]c1ncc(-c3cnc4c(c3)c(=O)c(C(=O)O)cn4[C@@H]3CCNC3)c(N3CCCC3)c12 [Example 1.156]	–	0.478	< 0.098	< 0.098
CNc1cc(F)c(F)c2c1[nH]c1ncc(-c3cnc4c(c3)c(=O)c(C(=O)O)cn4C)c(N3CC[C@@]4(CN(C)CCO4)C3)c12 [Example 3.16A]	–	0.161	< 0.098	< 0.098
CNc1cc(F)c(F)c2c1[nH]c1ncc(-c3cnc4c(c3)c(=O)c(C(=O)O)cn4C)c(N3CCN(C(C)C)CC3)c12 [Example 1.234]	–	0.821	< 0.098	0.283
CNc1cc(F)cc2c1[nH]c1ncc(-c3cnc4c(c3)c(=O)c(C(=O)O)cn4C)c(N3CCOCC3)c12 [Example 1.48]	–	0.11	< 0.098	< 0.098
CNc1cc(F)cc2c1[nH]c1ncc(-c3cnc4c(c3)c(=O)c(C(=O)O)cn4C)c(N3CCC(CNC4CC4)C3)c12 (centres unmarked) [Example 1.136]	–	0.172	< 0.098	< 0.098
CNc1cc(F)cc2c1[nH]c1ncc(-c3cnc4c(c3)c(=O)c(C(=O)O)cn4NC)c(N3CC4[C@H](CCN4C)C3)c12 (some centres unmarked) [Example 1.210]	–	< 0.098	< 0.098	< 0.098
CNc1cc(F)c(F)c2c1[nH]c1ncc(-c3cnc4c(c3)c(=O)c(C(=O)O)cn4NC)c(N3CCC4CN(C)CCC43)c12 (centres unmarked) [Example 1.244]	254 (≈ 432 µM)	–	–	–
CNc1cc(F)c(F)c2c1[nH]c1ncc(-c3cnc4c(c3)c(=O)c(C(=O)O)cn4NC)c(N3CCC4(CCCN4C)C3)c12 (centres unmarked) [Example 1.240]	–	0.151	< 0.098	< 0.098
CNc1cc(F)c(F)c2c1[nH]c1ncc(-c3cnc4c(c3)c(=O)c(C(=O)O)cn4C3CCN(C)C3)c(N3CCC(F)(F)C3)c12 (centres unmarked) [Example 2.03]	–	0.562	< 0.098	< 0.098
